According to patent US20200079765A1, “SUBSTITUTED HETEROARYL PYRROLONES AND SALTS THEREOF AND USE THEREOF AS HERBICIDAL ACTIVE SUBSTANCES” (Bayer CropScience Aktiengesellschaft, priority 2016, published 2020):

What was measured:
Stellaria media [1] = test: Herbicidal pre-emergence action (Experimental Part 2, D); format: in vivo; settings: pre-emergence (Part 2), scored visually after about 3 weeks
Source text: (§1) Seeds of mono- and dicotyledonous weed plants were placed in plastic pots in sandy loam soil (doubly sown with in each case one species of mono- or dicotyledonous weed plants per pot) and covered with soil. The compounds of the invention, formulated in the form of wettable powders (WP) or as emulsion concentrates (EC), were then applied onto the surface of the covering soil as aqueous suspension or emulsion with addition of 0.5% additive at a water application rate of 600 liters per hectare (converted). After the treatment, the pots are placed in a greenhouse and kept under good growth conditions for the trial plants. After about 3 weeks, the effect of the preparations was scored visually in comparison with untreated controls as percentages. For example, 100% activity=the plants have died, 0% activity=like control plants. Tables D1 to D8 below show the effects of selected compounds of the general formula (I) according to Tables I.1 to I.116 on various harmful plants and an application rate corresponding to 1280 g/ha or 320 g/ha, which were obtained by the experimental procedure mentioned above.

Poa annua [2] = test: as above; format: in vivo; settings: pre-emergence (Part 2), scored visually after about 3 weeks
Source text: as §1

Lolium rigidum = test: as above; format: in vivo; settings: pre-emergence (Part 2), scored visually after about 3 weeks
Source text: as §1

Matricaria inodora [3] = test: as above; format: in vivo; settings: pre-emergence (Part 2), scored visually after about 3 weeks
Source text: as §1

Echinochloa crus-galli [4] = test: as above; format: in vivo; settings: pre-emergence (Part 2), scored visually after about 3 weeks
Source text: as §1

Abutilon theophrasti [5] = test: as above; format: in vivo; settings: pre-emergence (Part 2), application rate 320 g/ha, scored visually after about 3 weeks
Source text: as §1

Amaranthus retroflexus [6] = test: as above; format: in vivo; settings: pre-emergence (Part 2), scored visually after about 3 weeks
Source text: as §1

Setaria viridis [7] = test: as above; format: in vivo; settings: pre-emergence (Part 2), scored visually after about 3 weeks
Source text: as §1

Stellaria media [8] = test: Herbicidal post-emergence action (Experimental Part 2, C); format: in vivo; settings: post-emergence (Part 2), rated visually after about 3 weeks
Description: (§2) Seeds of mono- and dicotyledonous weed plants were placed in plastic pots in sandy loam soil (doubly sown with in each case one species of mono- or dicotyledonous weed plants per pot), covered with soil and cultivated in a greenhouse under controlled growth conditions. 2 to 3 weeks after sowing, the test plants were treated at the one-leaf stage. The compounds of the invention, formulated in the form of wettable powders (WP) or as emulsion concentrates (EC), were applied onto the green parts of the plants as aqueous suspension or emulsion with addition of 0.5% additive at a water application rate of 600 liters per hectare (converted). After the test plants had been kept in the greenhouse under optimum growth conditions for about 3 weeks, the activity of the preparations was rated visually in comparison to untreated controls. For example, 100% activity=the plants have died, 0% activity=like control plants. Tables C1 to C8 below show the effects of selected compounds of the general formula (I) according to Tables I.1 to I.116 on various harmful plants and an application rate corresponding to 1280 g/ha or 320 g/ha, which were obtained by the experimental procedure mentioned above.

Poa annua [9] = test: as above; format: in vivo; settings: post-emergence (Part 2), rated visually after about 3 weeks
Description: as §2

Matricaria inodora [10] = test: as above; format: in vivo; settings: post-emergence (Part 2), rated visually after about 3 weeks
Description: as §2

Echinochloa crus-galli [11] = test: as above; format: in vivo; settings: post-emergence (Part 2), application rate 1280 g/ha, rated visually after about 3 weeks
Description: as §2

Abutilon theophrasti [12] = test: as above; format: in vivo; settings: post-emergence (Part 2), rated visually after about 3 weeks
Description: as §2

Amaranthus retroflexus [13] = test: as above; format: in vivo; settings: post-emergence (Part 2), rated visually after about 3 weeks
Description: as §2

Setaria viridis [14] = test: as above; format: in vivo; settings: post-emergence (Part 2), rated visually after about 3 weeks
Description: as §2

photosystem II (PS II) = target: T1, photosystem II (PS II) (Spinacia oleracea, UniProt P69560); test: Measurement of the PS II activity in thylakoid membranes (DCPIP reduction, Experimental Part 3, Table E1); format: biochemical; settings: spinach thylakoid membranes
T1 construct: the chloroplasts were osmotically ruptured and the thylakoid membranes were then obtained by centrifugation; from tissue; host or cells: thylakoid membranes from fresh spinach leaves
Description: Cooled fresh spinach leaves were comminuted and homogenized in 50 mM phosphate buffer, pH 6.8. 10 mM KCl, 0.34 M sucrose (sucrose buffer) (blender, 1 g of plant material/ml). The homogenate was subsequently filtered through 4 layers of Miracloth and the chloroplasts were isolated by centrifugation, i.e. 10 min of centrifugation at 4400×g (4° C.). The sediment was suspended in 25 ml of sucrose buffer and re-centrifuged for 10 min at 4400×g (4° C.). The sediment was then suspended in 40 ml of 50 mM phosphate buffer, pH 6.8, 10 mM KCl, without sucrose. In this step, the chloroplasts were osmotically ruptured and the thylakoid membranes were then obtained by centrifugation (10 min, 4400×g, 4° C.). The membrane sediment was finally suspended in about 20 ml of 50 mM phosphate buffer, pH 6.8, 10 mM KCl. Following protein determination and activity determination, the membrane suspension was divided into aliquots and frozen in liquid nitrogen. The aliquots were stored at −80° C. Under these conditions, the photosystem II preparation was storage stable for at least three months. The activity determination of photosystem II (PS II) was then carried out using the following test principle: The electron transfer from PS II to an artificial electron acceptor, 2,6-dichlorophenolindophenol (DCPIP), was measured with exposure to light. The concentration of the blue oxidized form of DCPIP was determined spectrophotometrically at wavelength λ=595 nm. […] The activity determination was carried out in microtiter plates (96 cavities) in a reaction volume of 200 μl. Here, 155 μl of dilute membrane suspension were initially charged in 50 mM of phosphate buffer, pH 6.8, 10 mM KCl. Depending on the activity of the PS II preparation, the dilution was adjusted such that the measurement of the decrease in absorption (λ=595 nm) was linear for at least 10 min. In each case 5 μl solution of the test compounds of a concentration of 100 μM in DMSO were added to the enzyme suspension; controls contained 5 μl DMSO; the final concentration of DMSO in the reaction batch was thus 2.5% (v/v); this concentration had no adverse effect on the enzymatic activity. On each microtiter plate, a known PS II inhibitor, for example metribuzin, was used as standard, which allowed the quality of the PS II test to be assessed. The reaction was started by addition of 40 μl DCPIP solution (600 μM in distilled water); the final concentration of DCPIP was 120 μM. Measurement of absorption was carried out over a period of 10 min at 22° C. and with exposure to light. Using metribuzin as comparative substance, the results for the efficacy of the compounds of the general formula (I) at 100 μM are stated in the table below using the following classification: ++++ (inhibition≥90%), +++ (90%>inhibition≥70%), ++ (70%>inhibition≥50%), + (50%>inhibition≥30%).
Effects of selected compounds of the general formula (I) according to the following table E1: […]

Compound	Stellaria media, herbicidal activity (Stellaria media [1]; application rate 320 g/ha) [%]	Poa Annua, herbicidal activity (Poa annua [2]; application rate 320 g/ha) [%]	Lolium rigidum, herbicidal activity (Lolium rigidum; application rate 1280 g/ha) [%]	Abutilon theophrasti, herbicidal activity (Abutilon theophrasti [5]) [%]	Amaranthus retroflexus, herbicidal activity (Amaranthus retroflexus [6]; application rate 1280 g/ha) [%]	Setaria viridis, herbicidal activity (Setaria viridis [7]; application rate 1280 g/ha) [%]	Stellaria media, herbicidal activity (Stellaria media [8]; application rate 320 g/ha) [%]	Poa Annua, herbicidal activity (Poa annua [9]; application rate 320 g/ha) [%]	Matricaria inodora, herbicidal activity (Matricaria inodora [10]; application rate 320 g/ha) [%]	Echinochloa crus-galli, herbicidal activity (Echinochloa crus-galli [11]) [%]	Abutilon theophrasti, herbicidal activity (Abutilon theophrasti [12]; application rate 320 g/ha) [%]	Amaranthus retroflexus, herbicidal activity (Amaranthus retroflexus [13]; application rate 320 g/ha) [%]	Effect (inhibition of PS II activity) (photosystem II (PS II))	Poa Annua, herbicidal activity (Poa annua [2]; application rate 1280 g/ha) [%]	Matricaria inodora, herbicidal activity (Matricaria inodora [3]; application rate 1280 g/ha) [%]	Setaria viridis, herbicidal activity (Setaria viridis [7]; application rate 320 g/ha) [%]	Stellaria media, herbicidal activity (Stellaria media [8]; application rate 1280 g/ha) [%]	Abutilon theophrasti, herbicidal activity (Abutilon theophrasti [12]; application rate 1280 g/ha) [%]	Setaria viridis, herbicidal activity (Setaria viridis [14]; application rate 1280 g/ha) [%]	Stellaria media, herbicidal activity (Stellaria media [1]; application rate 1280 g/ha) [%]	other results
CC1=CC(=O)N(c2onc(C(C)(C)C)c2C)C1O (centres unmarked) [I.1-300]	100	90	90	100	90	100	100	100	100	100	100	100	+++ (90%>inhibition≥70%)								Matricaria inodora, herbicidal activity (Matricaria inodora [3]; application rate 320 g/ha): 100%; Echinochloa crus-galli, herbicidal activity (Echinochloa crus-galli [4]; application rate 320 g/ha): 100%; Setaria viridis, herbicidal activity (Setaria viridis [14]; application rate 320 g/ha): 100%
CC1=CC(O)N(c2onc(C(C)(C)C)c2C)C1=O (centres unmarked) [I.2-300]	90			90								100	++++ (inhibition≥90%)	90	90	90	100	100	90		Amaranthus retroflexus, herbicidal activity (Amaranthus retroflexus [6]; application rate 320 g/ha): 100%
CC1=CC(=O)N(c2noc(C(C)(C)C)c2C)C1O (centres unmarked) [I.1-177]				100	90		100		100	100			++++ (inhibition≥90%)	100	100	100		100	100	100	Lolium rigidum, herbicidal activity (Lolium rigidum; application rate 320 g/ha): 90%; Echinochloa crus-galli, herbicidal activity (Echinochloa crus-galli [4]; application rate 1280 g/ha): 100%; Poa Annua, herbicidal activity (Poa annua [9]; application rate 1280 g/ha): 100%; Amaranthus retroflexus, herbicidal activity (Amaranthus retroflexus [13]; application rate 1280 g/ha): 100%
CCC(=O)OC1C(C)=CC(=O)N1c1cc(C(F)(F)F)c(Cl)cn1 (centres unmarked) [I.5-451, 5-Ethylcarbonyloxy-4-methyl-1-(5-chloro-4-trifluoromethylpyridin-2-yl)-1,5-dihydro-2H-pyrrol-2-one]		100	90								100				90	100	100		90	100	Poa Annua, herbicidal activity (Poa annua [9]; application rate 1280 g/ha): 100%; Matricaria inodora, herbicidal activity (Matricaria inodora [10]; application rate 1280 g/ha): 90%
CC1=CC(=O)N(c2cc(C(F)(F)F)c(Cl)cn2)C1O (centres unmarked) [I.1-451, 5-Hydroxy-4-methyl-1-(5-chloro-4-trifluoromethylpyridin-2-yl)-1,5-dihydro-2H-pyrrol-2-one]	100				90	100	100	100	90	100	100		++++ (inhibition≥90%)	90	100						Amaranthus retroflexus, herbicidal activity (Amaranthus retroflexus [13]; application rate 1280 g/ha): 100%
